Assay results published in patent publication US12668803B2, “Glypican-3-specific modified aptamer and use thereof” (APTAMER SCIENCES INC., priority 2019, dated 2026).

Tests used:
[1] = system: GPC3-expressing hepatoma cells; assay: Cell-killing effect (CCK-8) of gemcitabine-bound combi aptamers; assay type: cell-based; conditions: FIG. 23 and FIG. 24
Experimental: In detail, Huh-7 cells (ATCC, Rockville, MD, USA) were seeded in a 96-well plate at a density of 1×10^4/mL, and cultured using a DMEM (Gibco, Grand Island, NY, USA) medium containing 10% FBS (Gibco, Grand Island, NY, USA) and 1% antibiotics (penicillin/streptomycin) under conditions of 5% CO2 and 37° C. Next day, the aptamer stock (100 μM) was mixed with 5×SB18 buffer to prepare the stock at a concentration of 80 μM, and heated at 95° C. for 5 min, and then cooled at room temperature for 15 min or more. The medium was removed from the cultured cells, and 100 μL of a serum-free medium was added thereto, and cultured under conditions of 37° C. and 5% CO2 for 1 hr. The serum-free medium was removed, and then the cells were washed with 100 μL of 1×PBS. 100 μL of KRPH buffer was added, and cultured under conditions of 37° C. and 5% CO2 for 1 hr. The aptamer was diluted with KRPH buffer to 2-fold of the desired concentration, and added to a 96-well plate at 1× concentration, and cultured under conditions of 37° C. and 5% CO2 for 4 hr. After treatment with the aptamer, the KRPH buffer was removed, and then 100 μL of culture medium was added and cultured under conditions of 37° C. and 5% CO2 for […]. 6 days later, 10 μL of a kit solution of CCK-8 (Cell Counting Kit-8) was added to each well, and then cultured under conditions of 37° C. and 5% CO2 for 3 hr. Cell death levels were examined at […] using a microplate reader.

HepG2 = assay: Cellular internalization of gemcitabine-bound chemically optimized aptamers; assay type: cell-based; conditions: analysis in HepG2 and A431 cells, FIGS. 20 to 22
Experimental: [The source words this procedure for another cell line and reports this cell line under the same test.] 5 aptamer libraries prepared by truncating the 12-10 aptamer at various lengths [12-12 (35-mer), 12-11 (29-mer), 12-13 (24-mer), 12-14 (23-mer), and 12-15 (18-mer)] were subjected to cellular internalization analysis. In detail, a 6-well plate was prepared, and a round cover glass was placed in the 6-well plate. Huh-7 cells were cultured in the 6-well plate according to the method of Example 1-3. 5 μM of the aptamer stock was mixed with 5×SB18 buffer to prepare the aptamer at a concentration of 4 μM, and heated at 95° C. for 5 min, and then cooled at room temperature for 15 min or more. The next day, the medium was removed from the cultured cells, and a serum-free medium was added thereto, and cultured under conditions of 37° C. and 5% CO2 for 1 hr. The serum-free medium was removed, and then the cells were washed with 2 mL of 1×PBS. KRPH buffer was added, and cultured under conditions of 37° C. and 5% CO2 for 1 hr. 4 μM aptamer was diluted to 25 nM, and then cultured under conditions of 37° C. and 5% CO2 for 1 hr or 4 hr. Washing was repeated three times with 2 mL of 1×PBS. Washing was performed in a shaker at room temperature for 10 min while blocking the light. Thereafter, the cells were fixed by treatment with 4% paraformaldehyde at 4° C. for 10 min. Washing was repeated three times with 2 mL of 1×PBS. […]

Question: For “Combi 5 G(3) (DNA GNGAANGCGNNGAANNANWYSSSNNCAGNCANCAC; gemcitabines, 2'-OMe, 2'-F, BzdU, 3' idT; Combi 5 G(3); (1)..(1) G is 2-O-Methoxy-DNA.; (2)..(2) n is BzdU.; (3)..(3) G is 2-O-Methoxy-DNA.; (4)..(4) A is 2-Fluorine-DNA.; (5)..(5) A is 2-Fluorine-DNA.; (6)..(6) n is BzdU.; (10)..(10) n is BzdU.; (11)..(11) n is BzdU.; (12)..(12) G is 2-Fluorine-DNA.; (13)..(13) A is 2-Fluorine-DNA.; (14)..(14) A is 2-O-Methoxy-DNA.; (15)..(15) n is BzdU.; (16)..(16) n is BzdU.; (17)..(17) A is 2-O-Methox)”, which “concentration from which a cell-killing effect is shown” value [1] is on record?
Answer: Its value is 100 nM.

Question: What about the cellular internalization (HepG2) of the same substance?
Answer: The cellular internalization was “excellent cellular internalization”.
